Assay results from PMC10526209, “Systematic Exploration of Functional Group Relevance for Anti-Leishmanial Activity of Anisomycin” (Biomedicines, 2023).
Where a name gives a salt, the structure may show the parent alone. Read-outs that look alike come from different tables or passages of the source.

Legend:
L. tarentolae lysate = experiment: Cell-free transcription-translation inhibition in L. tarentolae lysate; assay type: biochemical; details: for IC50: inhibition of translation in active cell lysate, EGFP reporter, 120 min at 26 °C
Description: (§1) Cytosolic ribosome susceptibility and selectivity were assessed through three different cell-free transcription-translation assays: (1) An extract of E. coli (S30, Promega, Madison, WI, USA), (2) in rabbit reticulocytes (Promega), and (3) in L. tarentolae lysate (Jena Bioscience, Jena, Germany). Three plasmids, compatible with each extract system, were used in this study: pBESTlucTM (Promega) for the prokaryotic translation assay, Luciferase T7 DNA (Promega) for the reticulocytes, and pLEXSY-invitro2-EGFP (Jena Bioscience) for Leishmania. Firefly luciferase was used as a reporter gene for the bacterial and reticulocyte systems, and EGFP for Leishmania. […] Assays were performed in white polystyrene 96-well flat-bottom plates (Nunc, Roskilde, Denmark) for luciferase and black polystyrene 384-well flat-bottom plates (Greiner, Kremsmunster, Austria) for EGFP. Incubation times were 60 min at 37 °C, 90 min at 30 °C, and 120 min at 26 °C for the bacterial, reticulocyte, and Leishmania systems, respectively. Reactions were stopped by quick snap cooling followed by a 5 min incubation on ice. Luciferase activity was measured for each well following the addition of 50 μL of Luciferase Assay reagent (Promega, Madison, WI, USA) with an automatic reagent injector (Tecan, Mannedorf, Switzerland) by recording the chemical-luminescence signal. EGFP fluorescence (λex = 488 nm; λem = 507 nm) was recorded on a Tecan Infinite R®F200 microplate reader (Tecan). Extracts lacking the circular DNA template were used as a negative control to calculate the fluorescence/chemical luminescence background. Reaction mixtures without compounds were used as positive controls and were regarded as 100% translation. Paromomycin was used as a control reagent in all assays. At least six different concentrations were used to plot each translation inhibition curve; experiments were performed in three independent repeats in duplicate. Half maximal inhibition concentrations (IC50) values were calculated from the concentration-response fitting curves using GraFit7.0.3 software.

[1] = test system: rabbit reticulocytes (RR); experiment: Cell-free transcription-translation inhibition in rabbit reticulocytes; assay type: biochemical; details: inhibition of translation in rabbit reticulocyte lysate, luciferase reporter, 90 min at 30 °C
Description: as §1

extract of E. coli (S30) = experiment: Cell-free transcription-translation inhibition in E. coli S30 extract; assay type: biochemical; details: for IC50: inhibition of translation in active cell lysate, luciferase reporter, 60 min at 37 °C; for effect on E. coli (in words): translation assay
Description: as §1

[2] = test system: Leishmania infantum (MHOM/MA/67/ITMAP-263) resistant to 2 mM trivalent (and pentavalent) antimonials; experiment: Anti-leishmanial activity on promastigotes, antimony-resistant L. infantum; assay type: cell-based; details: 72 h
Description: (§2) The L. infantum (MHOM/MA/67/ITMAP-263) wild-type strain (WT), as well as the resistant mutants Sb2000.1, AmB1000.1, and MF200.5 [29, 30, 31, 32, 33], which are respectively resistant to antimony (Sb^III), amphotericin B (AmB), and miltefosine (MF), were grown in M199 medium at 25 °C supplemented with 10% fetal bovine serum, 5 μg/mL of haemin at pH 7.0, 2000 μM Sb (Potassium antimonyl tartrate trihydrate, Sigma-Aldrich, Saint Louis, MO, USA), 200 μM of MF (Miltefosine, Cayman Chem, Ann Arbor, MI, USA) or 1 μM AmB (Amphotericin B solution, Sigma-Aldrich, Saint Louis, MO, USA). Leishmanicidal values were determined in Leishmania promastigotes by monitoring the replication of parasites after 72 h of incubation at 25 °C in the presence of increasing concentrations of the different compounds by measuring A600 using a Cytation 5 machine (BioTek-Agilent, Santa Clara, CA 9, USA). EC50 values were calculated based on dose–response curves analyzed by non-linear regression with GraphPad Prism 10.0 software (GraphPad Software, La Jolla, CA, USA). An average of at least three independent biological replicates were performed for each determination.

[3] = test system: Leishmania infantum (MHOM/MA/67/ITMAP-263) wild-type strain; experiment: Anti-leishmanial activity on promastigotes, L. infantum WT; assay type: cell-based; details: 72 h, 25 °C
Description: as §2

[4] = test system: Leishmania major Friedlin; experiment: Anti-leishmanial activity on promastigotes, L. major Friedlin; assay type: cell-based; details: 72 h, 25 °C
[5] = test system: Leishmania infantum (MHOM/MA/67/ITMAP-263) resistant to 1 µM amphotericin B; experiment: Anti-leishmanial activity on promastigotes, amphotericin B-resistant L. infantum; assay type: cell-based; details: 72 h
Description: as §2

[6] = test system: Leishmania infantum (MHOM/MA/67/ITMAP-263) resistant to 200 µM miltefosine; experiment: Anti-leishmanial activity on promastigotes, miltefosine-resistant L. infantum; assay type: cell-based; details: 72 h
Description: as §2

[7] = test system: L. infantum WT amastigotes in BMDM; experiment: Drug susceptibility of intracellular amastigotes in infected BMDM, L. infantum; assay type: cell-based; details: Leishmania infantum; infected BMDM macrophages, 48 h; read-out: EC50 against amastigotes of L. infantum
Description: (§3) The effect of isopropyl ether 22a on the amastigote intracellular form of Leishmania was determined by the measurement of EC50 values in cells, as previously described. Briefly, 2.5 × 10^5 bone-marrow-derived macrophages (BMDMs) were plated into the wells of 12-well chamber slides (Ibidi) with complete DMEM medium. A culture of L. infantum or L. major WT promastigotes in stationary phase in a ratio of 1:5 BMDM to parasites was used to infect cells. Infection was carried out for 3 h at 37 °C in DMEM medium with 5% CO2 without drug. After 24 h, increasing concentrations of ether 22a were added to the medium containing the infected macrophages. After 48 h, the slides were fixed in methanol and stained with Diff-Quick solution to facilitate parasite visualization. The number of infecting amastigotes per 100 cells was determined by examining 300 macrophages per triplicate assay and normalized to the untreated control. EC50 values in the amastigote form were calculated based on dose–response curves that were analyzed by non-linear regression using the GraphPad Prism 9.0 software. An average of three independent biological replicates was used to perform the analyses.

host macrophage (BMDM) = experiment: Host macrophage toxicity, MTT survival assay; assay type: cell-based
[8] = test system: L. major WT amastigotes in BMDM; experiment: Drug susceptibility of intracellular amastigotes in infected BMDM, L. major; assay type: cell-based; details: Leishmania major; infected BMDM macrophages, 48 h; read-out: EC50 against amastigotes of L. major
Description: as §3

[9] = Leishmania infantum, read-out: IC50 (μM) Ldi Sb-Res
[10] = Leishmania infantum, read-out: IC50 (μM) Ldi WT
[11] = Leishmania major, read-out: IC50 (μM) LmF WT
[12] = Leishmania infantum, read-out: IC50 (μM) Ldi AmB-Res
[13] = Leishmania infantum, read-out: IC50 (μM) Ldi MF-Res

Row | Compound | IC50 (L. tarentolae lysate) [µM] | IC50 [1] [µM] | IC50 (extract of E. coli (S30)) [µM] | also measured
1 | CC(=O)O[C@@H]1[C@@H](O)CN[C@@H]1Cc1ccc(OCc2ccccc2)cc1 [Analog 22c, (2R,3S,4S)-4-hydroxy-2-(4-benzyloxybenzyl)-pyrrolidin-3-yl acetate] | 7.96 ± 1.02 | 0.9 ± 0.2 | > 200 | –
2 | COc1ccc(C[C@H]2NC[C@H](OC)[C@H]2OC)cc1 [Analog 10, (2R,3S,4S)-3,4-dimethoxy-2-(4-methoxybenzyl)-pyrrolidine hydrochloride] | > 1000 | > 1000 | > 1000 | –
3 | CC(=O)O[C@@H]1[C@@H](O)CN[C@@H]1Cc1cc(CN2CCOCC2)c(O)c(CN2CCOCC2)c1 [Analog 20, (2R,3S,4S)-4-hydroxy-2-[3,5-di-(morpholinomethyl)-4-hydroxybenzyl]-pyrrolidin-3-yl acetate] | > 1000 | > 1000 | > 1000 | activity against L. tarentolae translation / anti-protozoan activity (in words) (L. tarentolae lysate): abolished anti-protozoan activity
4 | CC(=O)O[C@@H]1[C@@H](O)CN[C@@H]1Cc1ccc(O)cc1 [Analog 17, (2R,3S,4S)-4-hydroxy-2-(4-hydroxybenzyl)-pyrrolidin-3-yl acetate] | 53.7 ± 6.1 | 6.2 ± 0.45 | > 200 | –
5 | CCCCCCCCCCCCCCCCOP(=O)([O-])OCC[N+](C)(C)C [Miltefosine, reference compound] | – | – | – | IC50 [2, 9]: 8.21 ± 0.53 µM; IC50 [3, 10]: 7.16 ± 0.21 µM; IC50 [4, 11]: 8.47 ± 1.18 µM; IC50 [5, 12]: 30.3 ± 4.28 µM; IC50 [6, 13]: > 200 µM
6 | CC(=O)O[C@@H]1[C@@H](O)CN[C@@H]1Cc1cc(CN(C)C)c(O)c(CN(C)C)c1 [Analog 19, (2R,3S,4S)-4-hydroxy-2-[3,5-di-(dimethylaminomethyl)-4-hydroxybenzyl]-pyrrolidin-3-yl acetate] | > 1000 | 70.7 ± 7.3 | > 200 | activity against L. tarentolae translation / anti-protozoan activity (in words) (L. tarentolae lysate): abolished anti-protozoan activity
7 | COc1ccc(C[C@H]2NC[C@H](O)[C@H]2O)cc1 [Analog 2, (2R,3S,4S)-3,4-dihydroxy-2-(4-methoxybenzyl)-pyrrolidine] | > 100 | > 1000 | > 1000 | –
8 | Potassium antimonyl tartrate trihydrate [reference compound] | – | – | – | IC50 ([2]; promastigotes, 25 °C, read-out: IC50 (μM) Ldi Sb-Res): > 2000 µM; IC50 ([3]; read-out: IC50 (μM) Ldi WT): 75.8 ± 6.13 µM; IC50 ([4]; read-out: IC50 (μM) LmF WT): 25 ± 1.13 µM; IC50 ([5]; promastigotes, 25 °C, read-out: IC50 (μM) Ldi AmB-Res): 90.2 ± 8.3 µM; IC50 ([6]; promastigotes, 25 °C, read-out: IC50 (μM) Ldi MF-Res): 85.3 ± 7.1 µM
9 | COc1ccc(C[C@H]2NC[C@H](O)[C@H]2OC)cc1 [Analog 11, (2R,3S,4S)-3-methoxy-4-hydroxy-2-(4-methoxybenzyl)-pyrrolidine hydrochloride] | 24 ± 2.5 | 70.9 ± 8.3 | > 1000 | –
10 | COc1ccc(C[C@H]2NC[C@H](O)[C@H]2OC(C)=O)cc1I [Analog 16, (2R,3S,4S)-4-hydroxy-2-(3-iodo-4-methoxybenzyl)-pyrrolidin-3-yl acetate] | > 1000 | 73.7 ± 1.7 | > 1000 | activity against L. tarentolae translation / anti-protozoan activity (in words) (L. tarentolae lysate): abolished anti-protozoan activity
11 | COc1ccc(C[C@H]2NC[C@H](OC(C)=O)[C@H]2OC(C)=O)cc1 [Analog 9, (2R,3S,4S)-3,4-diacetoxy-2-(4-methoxybenzyl)-pyrrolidine hydrochloride] | > 100 | 25.7 ± 8.5 | > 1000 | –
12 | CC(=O)O[C@@H]1[C@@H](O)CN[C@@H]1Cc1ccc(OC(C)C)cc1 [Analog 22a, (2R,3S,4S)-4-hydroxy-2-(4-iso-propoxybenzyl)-pyrrolidin-3-yl acetate] | 1.13 ± 0.12 | 0.9 ± 0.3 | > 200 | IC50 ([2]; Leishmania infantum, read-out: IC50 Ldi Sb-Res): 0.129 ± 0.00316 µM; IC50 ([3]; Leishmania infantum, unit nM, read-out: IC50 Ldi WT): 0.122 ± 0.00562 µM; EC50 [7]: 0.0333 µM; IC50 ([4]; Leishmania major, unit nM, read-out: IC50 LmF WT): 0.18 ± 0.00469 µM; IC50 ([5]; Leishmania infantum, read-out: IC50 Ldi AmB-Res): 0.119 ± 0.0141 µM; fold greater selectivity against the different amastigotes relative to host macrophage toxicity (host macrophage (BMDM); MTT survival assay): 5–10 fold; host cell toxicity (in words) (host macrophage (BMDM); host BMDM cells): without host cell toxicity; effect on E. coli (in words) (extract of E. coli (S30)): no effect; EC50 [8]: 0.0537 µM; IC50 ([6]; Leishmania infantum, read-out: IC50 Ldi MF-Res): 0.133 ± 0.0078 µM
13 | COc1ccc(C[C@@H]2[C@H](OC(C)=O)[C@@H](O)CN2C)cc1 [Analog 8, (2R,3S,4S)-1-methyl-4-hydroxy-2-(4-methoxybenzyl)-pyrrolidin-3-yl acetate] | > 100 | 25.5 ± 3.6 | > 1000 | –
14 | CC(=O)O[C@@H]1[C@@H](O)CN[C@@H]1Cc1ccc(OCC(=O)O)cc1 [Analog 22d, (2R,3S,4S)-4-hydroxy-2-(4-carboxymethyloxybenzyl)-pyrrolidin-3-yl acetate] | – | – | – | IC50 [2, 9]: 16 ± 1.03 µM; IC50 [3, 10]: 14.9 ± 2.18 µM; IC50 [4, 11]: 16.6 ± 2.23 µM; IC50 [5, 12]: 19.2 ± 1.24 µM; IC50 [6, 13]: 18.2 ± 2.33 µM
15 | CCCCCCCCOc1ccc(C[C@H]2NC[C@H](O)[C@H]2OC(C)=O)cc1 [Analog 22b, (2R,3S,4S)-4-hydroxy-2-(4-octyloxybenzyl)-pyrrolidin-3-yl acetate] | 33.5 ± 8.2 | 9.5 ± 3.5 | > 200 | IC50 [2, 9]: 1.75 ± 0.08 µM; IC50 [3, 10]: 1.11 ± 0.03 µM; IC50 [4, 11]: 1.75 ± 0.12 µM; IC50 [5, 12]: 1.78 ± 0.58 µM; IC50 [6, 13]: 1.83 ± 0.06 µM
16 | NC[C@@H]1O[C@H](O[C@H]2[C@@H](O)[C@H](O[C@@H]3[C@@H](O)[C@H](N)C[C@H](N)[C@H]3O[C@H]3O[C@H](CO)[C@@H](O)[C@H](O)[C@H]3N)O[C@@H]2CO)[C@H](N)[C@@H](O)[C@@H]1O [Paromomycin, reference compound] | 3.62 ± 0.09 | 21 ± 1.1 | 0.051 ± 0.005 | –
17 | COc1ccc(C[C@H]2NC[C@H](O)[C@H]2OC(C)=O)cc1 [Analog 1, Anisomycin] | 0.55 ± 0.03 | 0.1 ± 0.02 | > 500 | effect on E. coli (in words) (extract of E. coli (S30)): no effect
